Data taken from patent US20040092401A1, “Novel alpha-sulfin and alpha-sulfonamino amide derivatives” (priority 2000, published 2004).
Read-outs that look alike come from different tables or passages of the source.

Key:
[1] = system: Phytophthora (late blight); experiment: whole plant or invertebrate; format: in vivo; conditions: in Solanum lycopersicum, read-out: inhibit fungal infestation
[2] = system: Phytophthora (late blight); experiment: whole plant or invertebrate; format: in vivo; conditions: in Solanum tuberosum, read-out: inhibit fungal infestation
Plasmopara viticola = conditions: read-out: inhibit fungal infestation
Description: 5 week old grape seedlings cv. Gutedel are treated with the formulated test compound in a spray chamber. One day after application grape plants are inoculated by spraying a sporangia suspension (4×104 sporangia/ml) on the lower leaf side of the test plants. After an incubation period of 6 days at +21° C. and 95% r. h. in a greenhouse the disease incidence is assessed.

Compound	inhibition at 200 ppm [1]	inhibition at 200 ppm [2]	inhibition at 200 ppm (Plasmopara viticola)	melting point
CCS(=O)(=O)N[C@H](C(=O)NCCc1ccc(OCC#Cc2ccc(Cl)cc2)cc1)C(C)C [Compound A1.1, (S)-2-Ethanesulfonylamino-N-(2-{4-[3-(4-chloro-phenyl)-propargyloxvy]-phenyl}-ethyl)-3-methyl-butyramide]	≥ 80%	≥ 80%	≥ 80%	–
CCS(=O)(=O)N[C@H](C(=O)NCCc1ccc(OCc2ccccc2)cc1)C(C)C	–	–	–	133 to 134 °C
